# Patent US20250230193A1, “CYCLIC COMPOUND HAVING SELECTIVE KRAS INHIBITORY EFFECT ON HRAS AND NRAS” (CHUGAI SEIYAKU KABUSHIKI KAISHA, priority 2022, published 2025)
# Where a SMILES comes first, the peptide text is derived from it. Bridges are numbered along the chain shown (N, C = ends). [ ]: non-standard residue; d: D form. The star is where a group is joined. hPhe(3-Cl-4-CF3) = N[C@@H](CCc1ccc(C(F)(F)F)c(Cl)c1)C(=O)O; NPrPhe(4-CF3) = CCCN[C@@H](Cc1ccc(C(F)(F)F)cc1)C(=O)O; NMeGly(cPent) = CN[C@H](C(=O)O)C1CCCC1; Hyp = O=C(O)[C@@H]1C[C@@H](O)CN1; NMeD = CN[C@@H](CC(=O)O)C(=O)O; NMeL = CN[C@@H](CC(C)C)C(=O)O; NMeA = CN[C@@H](C)C(=O)O; Pyrrolidide = C1CCN(*)C1; Ac5c = NC1(C(=O)O)CCCC1; Aze = O=C(O)[C@@H]1CCN1; Ac4c = NC1(C(=O)O)CCC1; Sar = CNCC(=O)O
# Experiments:
# [1] = molecular target: GDP-bound NRAS wild-type protein (Homo sapiens, UniProt P01111); assay: Binding to NRAS by surface plasmon resonance (SPR), Single Cycle Kinetics
# GDP-bound NRAS wild-type protein, sequence (P01111 whole entry): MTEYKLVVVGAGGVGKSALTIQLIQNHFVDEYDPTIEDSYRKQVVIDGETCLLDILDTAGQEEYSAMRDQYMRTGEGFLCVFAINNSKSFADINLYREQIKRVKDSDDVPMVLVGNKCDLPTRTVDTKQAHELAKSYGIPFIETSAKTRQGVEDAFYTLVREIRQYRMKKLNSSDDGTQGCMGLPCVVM
# [2] = molecular target: GDP-bound HRAS wild-type protein (Homo sapiens, UniProt P01112); assay: Binding to HRAS by surface plasmon resonance (SPR), Single Cycle Kinetics
# GDP-bound HRAS wild-type protein, sequence (P01112 whole entry): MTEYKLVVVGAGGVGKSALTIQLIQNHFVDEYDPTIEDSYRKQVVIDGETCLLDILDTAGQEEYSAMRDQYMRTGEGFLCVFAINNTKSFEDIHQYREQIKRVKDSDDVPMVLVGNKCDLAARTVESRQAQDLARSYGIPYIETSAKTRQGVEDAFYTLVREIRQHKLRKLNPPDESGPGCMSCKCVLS
# [3] = SPR, GDP-bound wild-type proteins
compound,measurement,setting,value
C#CC[C@H]1C(=O)N[C@@H]([C@@H](C)CC)C(=O)N(C)CC(=O)N(C)[C@H]2C/C=C\CCN(C2=O)[C@@H](Cc2ccc(C(F)(F)F)cc2)C(=O)N(C)CC(=O)N[C@@H](CCc2cc(F)c(C(F)(F)F)c(F)c2)C(=O)N2C[C@H](OCC)C[C@H]2C(=O)NC2(CC(C)(C)C2)C(=O)N(C)[C@@H](C2CCCC2)C(=O)N(C)[C@H](C(=O)N(C)CCC)CC(=O)N1C [PP2074],NRAS/KRAS (ratio of KD value with respect to NRAS to KD value with respect to KRAS),"[1]; SPR, GDP-bound NRAS wild-type vs GDP-bound KRAS wild-type",A (a compound having 10 or more and less than 20 is denoted as A)
same,HRAS/KRAS (ratio of KD value with respect to HRAS to KD value with respect to KRAS),"[2]; SPR, GDP-bound HRAS wild-type vs GDP-bound KRAS wild-type",A (a compound having 10 or more and less than 20 is denoted as A)
CC[C@H](C)[C@@H]1NC(=O)[C@H](CC(C)C)N(C)C(=O)C[C@@H](C(=O)N2CCOCC2)N(C)C(=O)[C@H](C2CCCC2)N(C)C(=O)C2(CCC2)NC(=O)[C@]2(C)CCCN2C(=O)[C@H](CCc2cc(F)c(C(F)(F)F)c(F)c2)NC(=O)CN(C)C(=O)[C@H](Cc2ccc(C(F)(F)F)cc2)N2CCCC[C@@H](C2=O)N(C)C(=O)CN(C)C1=O [PP0808],NRAS/KRAS (ratio of KD value with respect to GDP-bound NRAS wild-type protein to KD value with respect to KRAS),[1]; SPR,B (a compound having 3 or more and less than 10 is denoted as B)
same,HRAS/KRAS (ratio of KD value with respect to GDP-bound HRAS wild-type protein to KD value with respect to KRAS),[2]; SPR,B (a compound having 3 or more and less than 10 is denoted as B)
CCC[C@H]1C(=O)N[C@@H]([C@@H](C)CC)C(=O)N(C2CC2)CC(=O)N(C)[C@H]2C/C=C\CCN(C2=O)[C@@H](Cc2ccc(C(F)(F)F)cc2)C(=O)N(C)CC(=O)N[C@@H](CCc2ccc(C(F)(F)F)c(OC)c2)C(=O)N2C[C@H](OCC)C[C@H]2C(=O)N(C)C2(CCC2)C(=O)N(C)[C@@H](C2CCCC2)C(=O)N(C)[C@H](C(=O)N2CCCC2)CC(=O)N1C [PP3097],NRAS/KRAS (ratio of KD value with respect to GDP-bound NRAS wild-type protein to KD value with respect to KRAS),[1]; [3],A (a compound having 10 or more and less than 20 is denoted as A)
same,HRAS/KRAS (ratio of KD value with respect to GDP-bound HRAS wild-type protein to KD value with respect to KRAS),[2]; [3],A (a compound having 10 or more and less than 20 is denoted as A)
CC[C@H](C)[C@@H]1NC(=O)[C@H](COC)N(C)C(=O)C[C@@H](C(=O)N(C)C)N(C)C(=O)[C@H](C2CCCC2)N(C)C(=O)C2(CC(C)(C)C2)NC(=O)[C@@H]2C[C@@H](OC3CCCC3)CN2C(=O)[C@H](CCc2cc(F)c(C(F)(F)F)c(F)c2)NC(=O)CN(C)C(=O)[C@H](CC2CCCCC2)N2CC/C=C\C[C@@H](C2=O)N(C)C(=O)CN(C2CC2)C1=O [PP2630],NRAS/KRAS (ratio of KD value with respect to GDP-bound NRAS wild-type protein to KD value with respect to KRAS),[1]; class symbols,A (a compound having 10 or more and less than 20 is denoted as A)
same,HRAS/KRAS (ratio of KD value with respect to GDP-bound HRAS wild-type protein to KD value with respect to KRAS),[2]; class symbols,B (a compound having 3 or more and less than 10 is denoted as B)
CCC[C@H]1C(=O)N[C@@H]([C@@H](C)CC)C(=O)N(C)CC(=O)N(C)[C@H]2C/C=C\CCN(C2=O)[C@@H](Cc2ccc(C)cc2)C(=O)N(C)CC(=O)N[C@@H](CCc2cc(F)c(C(F)(F)F)c(F)c2)C(=O)N2C[C@H](OCC)C[C@H]2C(=O)NC2(CC(C)(C)C2)C(=O)N(C)[C@@H](CC2CCC2)C(=O)N(C)[C@H](C(=O)N(C)C)CC(=O)N1C [PP2751],NRAS/KRAS (ratio of KD value with respect to GDP-bound NRAS wild-type protein to KD value with respect to KRAS),[1]; class symbols,A (a compound having 10 or more and less than 20 is denoted as A)
same,HRAS/KRAS (ratio of KD value with respect to GDP-bound HRAS wild-type protein to KD value with respect to KRAS),[2]; class symbols,A (a compound having 10 or more and less than 20 is denoted as A)
CCCN1C(=O)[C@@H]2CCN2C(=O)[C@H](C)N(C)C(=O)[C@H]([C@@H](C)CC)NC(=O)[C@H](CC(C)C)N(C)C(=O)C[C@@H](C(=O)N2CCCC2)N(C)C(=O)[C@H](C2CCCC2)N(C)C(=O)C2(CCCC2)NC(=O)[C@@H]2CCCN2C(=O)[C@H](CCc2ccc(C(F)(F)F)c(Cl)c2)NC(=O)CN(C)C(=O)[C@@H]1Cc1ccc(C(F)(F)F)cc1 [PP0179] ([NMeL]I[NMeA][Aze][NPrPhe(4-CF3)][Sar][hPhe(3-Cl-4-CF3)]P[Ac5c][NMeGly(cPent)][NMeD]-Pyrrolidide; lactam N-11),NRAS/KRAS (ratio of KD for GDP-bound NRAS wild-type to KD for KRAS),[1]; SPR,C (A compound having a KD ratio of 0.1 or more and less than 3 is denoted as C)
same,HRAS/KRAS (ratio of KD for GDP-bound HRAS wild-type to KD for KRAS),[2]; SPR,B (a compound having 3 or more and less than 10 is denoted as B)
CCCN1C(=O)[C@@H]2CCN2C(=O)CN(C)C(=O)[C@H]([C@@H](C)CC)NC(=O)[C@H](CC(C)C)N(C)C(=O)C[C@@H](C(=O)N(C)C)NC(=O)[C@H](C2CCCC2)N(C)C(=O)C2(CCC2)NC(=O)[C@@H]2C[C@@H](OCC)CN2C(=O)[C@H](CCc2ccc(C(F)(F)F)c(Cl)c2)NC(=O)CN(C)C(=O)[C@@H]1Cc1ccc(C(F)(F)F)cc1 [PP0390] ([NMeL]I[Sar][Aze][NPrPhe(4-CF3)][Sar][hPhe(3-Cl-4-CF3)][Hyp](Et)[Ac4c][NMeGly(cPent)]D-NMe2; lactam N-11),NRAS/KRAS (ratio of KD for GDP-bound NRAS wild-type to KD for KRAS),[1]; SPR,C (A compound having a KD ratio of 0.1 or more and less than 3 is denoted as C)
same,HRAS/KRAS (ratio of KD for GDP-bound HRAS wild-type to KD for KRAS),[2]; SPR,B (a compound having 3 or more and less than 10 is denoted as B)
